Patent US12390467B2, “Necroptosis inducers or autophagy inhibitors or a combination thereof” (The University of Toledo, priority 2018, dated 2025)

How the values were obtained:
Type in all cases: cell-based
[1] = system: EMT and Wnt/β-catenin signaling proteins in BT-20 cells; test: Western blot, EMT and Wnt/β-catenin proteins, BT-20
Procedure: The TNBC cells were seeded in a culture flask and incubated for 24 h. The cells were then incubated with different concentrations of the lead compounds and re-incubated for an additional 12 or 24 h. […] The bicinchoninic acid (BCA) was used to determine protein concentration in the cell extracts (G-BIOSCIENCES, St. Louis, MO, USA). […] The membrane was blocked using 5% milk in Tris-buffered Tween 20 saline for 30 minutes. The membrane was then incubated overnight with primary antibodies against Bak, Bax, Bcl-2, caspase9, caspase 3, caspase 7, PARP, cytochrome c, N-cadherin, E-cadherin, c-Myc, dishevelled segment polarity protein 3 (DVL3), dishevelled segment polarity protein 2 (DVL2), Vimentin, mitogen-activated protein kinase kinase (MAPKK also known as MEK1/2), β-catenin, low-density lipoprotein receptor-related protein 6 (LRP6), receptor-interacting protein kinase (RIP), phosphorylated RIP (p-RIP), mixed lineage kinase domain like pseudokinase(MLKL), Caspase 8, light chain 3 (LC3), lysosomal-associated membrane protein 1 (LAMP1), unc-51 like autophagy activating kinase 1 (ULK1), ras associated protein 7 (Rab7), ras associated protein 5 (Rab5), Beclin 1, mechanistic target of rapamycin (mTOR), tumor necrosis factor alpha (TNF-α), tumor necrosis factor receptor 1 (TNFR1), tumor necrosis factor receptor 2 (TNFR2), Fas-associated protein with death domain (FADD), Fas ligand (Fas), TNF-related apoptosis-inducing ligand (TRAIL), death receptor 5 (DR5), Tumor necrosis factor receptor type 1-associated DEATH domain (TRADD), receptor-interacting protein kinase 3 (RIP3), β-actin or GAPDH in 1:1000 dilution in 5% milk or 5% BSA at 4° C. Horseradish peroxidase-labeled (HRP) anti-rabbit or anti-mouse secondary antibodies (1:5,000 dilution) were added and incubated the next day for an additional 1 h. A ChemiDoc™ MP System imaging system from Bio-Rad (Hercules, CA, USA) was used for blots reading. Blots were used to obtain the protein bands, followed by quantification of the bands using image J software (NIH, Bethesda, MD, USA). All of the data were expressed as the ratio of β-actin or GAPDH.

[2] = system: MDA-MB231, MDA-MB468, and BT-20; test: Cell colony formation assay; settings: vs vehicle
Procedure: This assay was used to measure the size and rate of colony formation for TNBC cells, with or without TPH104, as previously reported. Briefly, in a 6-well cell culture plate, cells were seeded at a density of 250,000 cells/well and allowed to grow/attach overnight. The next day, the cells were incubated with different concentration of TPH104 (0.1, 1, or 10 μM) or vehicle and incubated for 12 h at 37° C. Following incubation, the cells were harvested, counted, and reseeded at a density of 500-800 cells/well (1 ml in each well), in a new 6-well plate, with complete medium for 10 days. The medium was changed every 2 days in order to prevent cell starvation. On the 10th day, the colonies were fixed with absolute methanol at room temperature for 30 minutes. Subsequently, cells were stained with 0.1% crystal violet dye (Sigma, USA) for an additional 30 minutes. Finally, the fixed and stained colonies were viewed, pictured (at 4, 10, and 20×) and counted using an EVOS-FLC microscope (Thermo Fisher Scientific, Wayne, MI, USA). The following equation was used to calculate the colony formation rate: Colony formation rate=number of colonies formed/number of seeded cells (500)×100% Trans-Well Migration Assay

MDA-MB468 and MDA-MB231 = test: Cell cycle analysis (PI, flow cytometry); settings: 0.5, 1, 2 μM, 12 h
Procedure: The cell cycle analysis was performed to evaluate the effect of TPH104 on the normal cell cycle in the TNBC cell lines (i.e. MDA-MB 468, MDA-MB231 and BT-20). Cells were plated in a 6-well plate at a suitable density as previously described and incubated overnight to allow for cell attachment. The following day, cells were incubated with different TPH104 concentrations (0.5, 1, or 2 μM) or vehicle for 12 h. The cells were harvested by trypsinization and collected in individual test tubes. Subsequently, cells were washed 3× with ice cold PBS and fixed with 70% ethanol for 30 minutes. Following fixation, cells were again washed 3× with intermittent centrifugation at 2000 rpm for 5 minutes and incubated with 100 μl RNAse (from a 100 μg/ml stock) (to ensure that only DNA was stained). Two hundred μl of PI (from a 50 μg/ml stock solution) was added to each test tube and cells were stain cells for at least 15 minutes on ice. Finally, a FACS Calibur flow cytometer (BD Biosciences, San Jose, CA) was used to detect the distribution of the cells following incubation with vehicle or TPH104. FlowJo v10.2 software from FlowJo LLC (Ashland, OR) was used for data analysis.

[3] = target: T1, BCRP (ABCG2), MCF-7 M100 breast cancer cells (Homo sapiens, UniProt Q9UNQ0); test: Hoechst 33342 assay for BCRP modulation; settings: concentration dependent
T1 construct: endogenous in cells; host or cells: MCF-7 M100 breast cancer cells
T1 sequence (Q9UNQ0 whole entry): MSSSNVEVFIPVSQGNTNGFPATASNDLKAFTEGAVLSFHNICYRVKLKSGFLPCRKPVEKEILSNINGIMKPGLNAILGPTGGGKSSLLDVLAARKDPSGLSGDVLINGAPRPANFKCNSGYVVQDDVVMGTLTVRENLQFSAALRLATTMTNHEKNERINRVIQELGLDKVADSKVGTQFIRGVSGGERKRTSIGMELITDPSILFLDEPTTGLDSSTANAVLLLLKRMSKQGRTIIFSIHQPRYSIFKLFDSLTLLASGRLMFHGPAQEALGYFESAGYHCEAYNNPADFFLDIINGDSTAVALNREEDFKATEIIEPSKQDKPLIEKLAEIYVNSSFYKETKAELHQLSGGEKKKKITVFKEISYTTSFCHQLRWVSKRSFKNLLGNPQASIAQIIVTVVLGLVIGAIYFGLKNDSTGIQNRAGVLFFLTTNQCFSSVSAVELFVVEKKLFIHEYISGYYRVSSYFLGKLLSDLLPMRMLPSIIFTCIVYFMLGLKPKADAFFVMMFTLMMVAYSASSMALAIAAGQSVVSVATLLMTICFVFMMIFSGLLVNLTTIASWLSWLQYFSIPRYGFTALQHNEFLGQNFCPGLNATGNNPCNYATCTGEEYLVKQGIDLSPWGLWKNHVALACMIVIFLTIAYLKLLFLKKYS
Procedure: Ability of BCRP to efflux nuclear stain Hoechst 33342 was used to identify the molecules which interfere with BCRP transporter activity. About 14000 cells of MCF-7 M100 breast cancer cells were seeded in each well in 96 well plates and allowed to grow until confluency for 4-5 days. Then media was replaced with phenol red free RPMI media and cells were treated with indicated concentrations of TPH104s and 5 μg/mL of Hoechst 33342. Fluorescence measured after 60 minutes with excitation at 361/20 nm and at emission 497/20 nm using the BioTek Cytation 5 imaging multi-mode reader (Bio-Tek, Winooski, VT). DMSO (0.5% v/v) was used as the vehicle, and 0.5 μM of BCRP inhibitor, Ko143 was used as a positive control and 15 μM of P-gp modulator, verapamil was used as negative control.

[4] = system: ABCG2 transporter in H460/MX20, S1M180 and HEK293/R2 cells; test: Western blot, ABCG2 transporter expression; settings: concentration dependent
Source text: FIG. 25: TPH104 reverses multidrug resistance by downregulating the expression of ABCG2 transporter in a concentration dependent fashion in drug resistant small cell lung cancer cells (H460/MX20), colon cancer cells (S1M180) and ABCG2-transfected cells (HEK293/R2). The bar graph represents the quantified values of the ratio of ABCG2/β-actin. The data represent mean±SEM of three independent western blots. *p<0.05, **p<0.01 compared to control.

COc1ccc(O)c(/C=N/Nc2ncnc3scc(-c4ccc(C)cc4)c23)c1 [TPH104]
expression levels of DVL3, DVL2, vimentin, and MEK1/2 ([1]; 2 μM and 5 μM): significantly decreased
expression of N-cadherin ([1]; 2 μM and 5 μM): significantly decreased
expression of c-Myc ([1]; 0.5, 1, 2, and 5 μM): significantly decreased
expression of β-catenin or LRP6 ([1]; 0.5, 1, 2, and 5 μM): did not significantly alter
expression of E-cadherin ([1]; 1, 2, or 5 μM): significantly increased
colony formation rate ([2]; 0.1, 1, 10 μM for 12 h): significantly inhibited
number and size of the colonies formed ([2]; 1 and 10 μM, all 3 TNBC cell lines): significantly decreased
level of cells arrested in the S phase (MDA-MB468 and MDA-MB231): significantly increased
number of cells in the G1 phase (MDA-MB468 and MDA-MB231): significant reduction
efflux function of ABCG2 [3]: blocking the efflux function
expression of ABCG2 transporter [4]: downregulated
